Marks after values point to notes of the source that are not given here.
How the values were obtained:
[1] = Inhibition against UV-induced liposome oxidation; conditions: UV 254 nm, 45 min
Method: To prepare liposome MLV, 10 mg of egg yolk PC were dissolved in a small amount of chloroform in a round bottom flask and the solvent was removed using a rotary evaporator followed by nitrogen flush. The thin film on the inner surface of the flask was suspended in 10 ml of PBS (10 mM, pH7.4, 150 mM NaCl) by vortex and sonication, and the emulsion was then repeatedly frozen and thawed for 4 times. The liposomal MLV obtained were diluted by 90 ml of PBS, and an aliquot (750 μL) was transferred into an Eppendorf tube containing 10 μL of test compounds dissolved in ethanol and 240 μL of PBS. The content was mixed well and incubated at 37° C. for 15 min. After incubation, the mixture was exposed to UV irradiation (254 nm) for 45 min. The oxidation was detected by measuring conjugated dienes (CD) spectrophotometically at 234 nm against a blank without liposome (test compounds+PBS). Conjugated diene values were calculated as follows using blank-corrected absorbances. CD(mol/g of PC)=Abs./εLC, where ε is the absorptivity constant (29500 M^−1cm^−1), L is the length of the cuvette (1 cm) and C is the final concentration of PC (g/L). […] Discussion

[2] = ORAC (Oxygen Radical Absorbance Capacity) assay for lipophilic antioxidants; conditions: samples 0.25 μM, 7% RMCD, fluorescein probe
Method: An ORAC (Oxygen Radical Absorbance Capacity) assay was carried out using a Fluostar Optima plate reader (BMG Labtech, Durham, N.C.) equipped with an incubator and two injector pumps. A modified method for lipophilic antioxidants was followed, in which randomly methylated cyclodextrin (RMCD) was used as water solubility enhancer, as described by Huang et al, J. Agric. Food Chem., 2002, 50, 1815-1821. Trolox standards (6.25-50 μM) and samples (0.25 μM) were dissolved in acetone/water (1:1, v/v) containing 7% RMCD. Fluorescein and […] [2,2′-azobis(2-aminopropane)dihydrochloride] were used as the probe and radical generator, respectively. Twenty microliters of trolox standard or test compound solutions (7% RMCD used as a control) were added into each well of a 96-well black microplate, followed by addition of fluorescein. The plate was incubated at 37° C. for 15 min and then AAPH in buffer was injected into the wells. The conditions used were as follows: 0.3 s position delay, 8 s orbital shaking before each cycle with 4 mm width, 210 s cycle time, and 25 cycles. Fluorescence was measured at an excitation wavelength of 485 nm and emission of 520 nm. A standard curve was plotted and ORAC values for test compounds were obtained as mol of trolox equivalents (TE) per mol of test compound. (3b) Reducing Power The reducing power of EGCG and its derivatives (compounds 1a-1c) was determined according to Oyaizu (1986). One milliliter of test compounds (1 mM in 95% ethanol) was mixed with 2.5 ml of phosphate buffer solution (PBS, 0.2 M, pH 6.6) and 2.5 ml of a 1% solution of potassium ferricyanide, K3Fe(CN)6. The mixture was incubated at 50° C. for 20 min. […] The content was mixed well and the absorbance was recorded at 700 nm. Higher absorbance of the reaction mixture indicates greater reducing power. […] (3c) Metal Chelation The metal chelation capacity was measured following a procedure by Decker E. A. et al., J. Agric. […] The absorbance was measured afterwards at 562 nm. A blank without ferrozine was run for each compound, since the antioxidant-Fe^2+ complex gives a colour that might interfere with the absorbance reading. Metal chelation capacity was calculated using the following equation: % chelation=[1−(Abs.sample−Abs.blank)/Abs.control]×100 where, control was devoid of test compounds, while blank contained no ferrozine. (3d) DPPH Antioxidant activity of the lipophilic EGCG derivatives was ALSO evaluated as DPPH (1,1-diphenyl-2-picrylhydrazyl) radical scavenging capacity using EGCG as the reference. DPPH scavenging capacity of test compounds was determined by EPR (electron paramagnetic resonance) according to Madhujith and Shahidi (16) with slight modifications. […] The spectrum was recorded after 1 min. […]

[3] = TBARS formation in cooked pork model system; conditions: 80 μmol/kg meat, stored at 4° C.
Method: Fresh ground pork (40 g) was mixed with deionized water (10 g) in a Mason jar. Samples and reference antioxidant compound (BHA) dissolved in ethanol were added to meat at a level of 80 μmol/kg. A control without any antioxidant was also prepared. The content was thoroughly mixed and cooked at 80° C. in a thermostated water bath for 40 min with intermittent stirring. The cooked meat was cooled to room temperature and homogenized with a Polytron PT 3000 (Brinkmann Instruments, Rexdale, ON) homogenizer. The homogenate was then transferred into plastic bags and stored at 4° C. for 14 days. […].
TBARS values were determined as described by Shahidi and Hong (Shahidi, F. and Hong, C. Evaluation of malonaldehyde as a marker of oxidative rancidity in meat products. J. Food Biochem. 15, 97-105, 1991).
A series of TMP (1,1,3,3-tetramethoxypropane) standard solutions at difference concentrations was mixed with thiobarbituric acid (TBA) in screw-capped tubes and heated in a boiling water bath for 45 min. After cooling on ice, the absorbance was recorded at 532 nm and a standard curve was constructed (absorbance versus concentration). For TBARS in the cooked meat model system, 2 g of meat were mixed with 5 ml of trichloroacetic acid (TCA, 10% w/v) in a centrifuge tube, followed by addition of 5 ml of TBA reagent. The mixture was centrifuged at 3000×g for 10 min and the supernatant was filtered. The filtrate was heated in a boiling water bath for 45 min and absorbance was measured at 532 nm after cooling to room temperature. TBARS values in meat samples were obtained using the standard curve as μmol malonaldehyde equivalents/kg of meat. Antioxidant activity was calculated as percentage inhibition of TBARS formation by test compounds.

## CCCCCCCCCCCCCCCCCC(=O)Oc1cc(C(=O)OC2Cc3c(O)cc(O)cc3OC2c2cc(OC(=O)CCCCCCCCCCCCCCCCC)c(O)c(OC(=O)CCCCCCCCCCCCCCCCC)c2)cc(OC(=O)CCCCCCCCCCCCCCCCC)c1O (stereo not drawn) [Compound 1a, EGCG stearate]
[1]
  % inhibition of UV-induced liposome oxidation (conjugated dienes): 47.59%
[2]
  ORAC: 51.56 mol trolox eq./mol
[3]
  Inhibition of TBARS formation in cooked pork: 86.3 ± 2.10^a %

## CCC=CCC=CCC=CCC=CCC=CCCCC(=O)Oc1cc(C(=O)OC2Cc3c(O)cc(O)cc3OC2c2cc(OC(=O)CCCC=CCC=CCC=CCC=CCC=CCC)c(O)c(OC(=O)CCCC=CCC=CCC=CCC=CCC=CCC)c2)cc(OC(=O)CCCC=CCC=CCC=CCC=CCC=CCC)c1O (stereo not drawn) [Compound 1b]
[1]
  % inhibition of UV-induced liposome oxidation (conjugated dienes): 3.47%
[2]
  ORAC: 81.52 mol trolox eq./mol
[3]
  Inhibition of TBARS formation in cooked pork: 80.5 ± 0.80^bc %

## CCC=CCC=CCC=CCC=CCC=CCC=CCCC(=O)Oc1cc(C(=O)OC2Cc3c(O)cc(O)cc3OC2c2cc(OC(=O)CCC=CCC=CCC=CCC=CCC=CCC=CCC)c(O)c(OC(=O)CCC=CCC=CCC=CCC=CCC=CCC=CCC)c2)cc(OC(=O)CCC=CCC=CCC=CCC=CCC=CCC=CCC)c1O (stereo not drawn) [Compound 1c]
[1]
  % inhibition of UV-induced liposome oxidation (conjugated dienes): 16.22%
[2]
  ORAC: 84.70 mol trolox eq./mol
[3]
  Inhibition of TBARS formation in cooked pork: 78.4 ± 1.62^c %

## O=C(O[C@@H]1Cc2c(O)cc(O)cc2O[C@@H]1c1cc(O)c(O)c(O)c1)c1cc(O)c(O)c(O)c1 [EGCG, Epigallocatechin gallate, reference compound]
[1]
  % inhibition of UV-induced liposome oxidation (conjugated dienes): 9.53%
[2]
  ORAC: 14.97 mol trolox eq./mol
[3]
  Inhibition of TBARS formation in cooked pork: 71.9 ± 1.56^d %

From patent US9018248B2, “Fatty acid derivatives of catechins and methods of their use” (Genesis Group Inc., priority 2010, dated 2015)
